Data: the supplement of paper PMC10307832

How the values were obtained:
Assay in all cases: relative viability (nuclei count vs DMSO), 5 days (fraction); higher = more cells survive
201T = tested on: 201T
Method in brief: (§1)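 Five library-drug doses in √10 steps were combined with a fixed anchor-drug dose, or a single drug was given alone, by pin tool to lung cancer cell lines in 1536-well plates the day after seeding. Nuclei were stained and counted after 5 days. Relative viability is the nuclei count in treated wells over that in vehicle wells, taken as the median of duplicate plates.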

A-427 = tested on: A-427
Method in brief: as §1

COR-L 105 = tested on: COR-L 105
Method in brief: as §1

COR-L23 = tested on: COR-L23
Method in brief: as §1

EKVX = tested on: EKVX
Method in brief: as §1

HARA = tested on: HARA
Method in brief: as §1

HCC-15 = tested on: HCC-15
Method in brief: as §1

HCC-44 = tested on: HCC-44
Method in brief: as §1

HCC-827 = tested on: HCC-827
Method in brief: as §1

LCLC-103H = tested on: LCLC-103H
Method in brief: as §1

LK-2 = tested on: LK-2
Method in brief: as §1

NCI-H1437 = tested on: NCI-H1437
Method in brief: as §1

NCI-H1666 = tested on: NCI-H1666
Method in brief: as §1

NCI-H1792 = tested on: NCI-H1792
Method in brief: as §1

NCI-H1975 = tested on: NCI-H1975
Method in brief: as §1

NCI-H23 = tested on: NCI-H23
Method in brief: as §1

NCI-H441 = tested on: NCI-H441
Method in brief: as §1

NCI-H520 = tested on: NCI-H520
Method in brief: as §1

NCI-H522 = tested on: NCI-H522
Method in brief: as §1

NCI-H596 = tested on: NCI-H596
Method in brief: as §1

NCI-H650 = tested on: NCI-H650
Method in brief: as §1

NCI-H838 = tested on: NCI-H838
Method in brief: as §1

SK-MES-1 = tested on: SK-MES-1
Method in brief: as §1

SW 900 = tested on: SW 900
Method in brief: as §1

C[C@@H]1CN(CC(=O)Nc2ccc3c(c2)Cc2cccc(-c4cc(=O)cc(N5CCOCC5)o4)c2S3)C[C@H](C)O1 + COc1cccc2cc(-c3nc([C@H]4CC[C@H](C(=O)O)CC4)n4ncnc(N)c34)[nH]c12 [OSI-027] (partner 0.5 µM)
relative viability (201T; first compound 0.04 µM): 0.784
relative viability (201T; first compound 0.1265 µM): 0.68
relative viability (201T; first compound 0.4 µM): 0.683
relative viability (201T; first compound 4 µM): 0.757
relative viability (A-427; first compound 0.04 µM): 0.501
relative viability (A-427; first compound 0.1265 µM): 0.53
relative viability (A-427; first compound 0.4 µM): 0.482
relative viability (A-427; first compound 4 µM): 0.575
relative viability (COR-L 105; first compound 0.04 µM): 0.728
relative viability (COR-L 105; first compound 0.1265 µM): 0.828
relative viability (COR-L 105; first compound 0.4 µM): 0.823
relative viability (COR-L 105; first compound 4 µM): 0.661
relative viability (COR-L23; first compound 0.04 µM): 0.782
relative viability (COR-L23; first compound 0.1265 µM): 0.776
relative viability (COR-L23; first compound 0.4 µM): 0.73
relative viability (COR-L23; first compound 4 µM): 0.717
relative viability (EKVX; first compound 0.04 µM): 0.713
relative viability (EKVX; first compound 0.1265 µM): 0.676
relative viability (EKVX; first compound 0.4 µM): 0.712
relative viability (EKVX; first compound 4 µM): 0.618
relative viability (HARA; first compound 0.1265 µM): 0.499
relative viability (HARA; first compound 0.4 µM): 0.251
relative viability (HARA; first compound 4 µM): 0.412
relative viability (HCC-15; first compound 0.04 µM): 0.76
relative viability (HCC-15; first compound 0.1265 µM): 0.606
relative viability (HCC-15; first compound 0.4 µM): 0.485
relative viability (HCC-15; first compound 4 µM): 0.524
relative viability (HCC-44; first compound 0.04 µM): 0.328
relative viability (HCC-44; first compound 0.1265 µM): 0.707
relative viability (HCC-44; first compound 0.4 µM): 0.335
relative viability (HCC-44; first compound 4 µM): 0.305
relative viability (HCC-827; first compound 0.04 µM): 0.775
relative viability (HCC-827; first compound 0.1265 µM): 0.738
relative viability (HCC-827; first compound 0.4 µM): 0.509
relative viability (HCC-827; first compound 4 µM): 0.746
relative viability (LCLC-103H; first compound 0.04 µM): 0.405
relative viability (LCLC-103H; first compound 0.1265 µM): 0.379
relative viability (LCLC-103H; first compound 0.4 µM): 0.387
relative viability (LCLC-103H; first compound 4 µM): 0.476
relative viability (LK-2; first compound 0.04 µM): 0.196
relative viability (LK-2; first compound 0.1265 µM): 0.207
relative viability (LK-2; first compound 0.4 µM): 0.162
relative viability (LK-2; first compound 4 µM): 0.257
relative viability (NCI-H1437; first compound 0.04 µM): 0.918
relative viability (NCI-H1437; first compound 0.1265 µM): 0.881
relative viability (NCI-H1437; first compound 0.4 µM): 0.864
relative viability (NCI-H1437; first compound 4 µM): 0.747
relative viability (NCI-H1666; first compound 0.04 µM): 0.932
relative viability (NCI-H1666; first compound 0.1265 µM): 0.87
relative viability (NCI-H1666; first compound 0.4 µM): 0.978
relative viability (NCI-H1666; first compound 4 µM): 0.838
relative viability (NCI-H1792; first compound 0.04 µM): 0.692
relative viability (NCI-H1792; first compound 0.1265 µM): 0.639
relative viability (NCI-H1792; first compound 0.4 µM): 0.633
relative viability (NCI-H1792; first compound 4 µM): 0.458
relative viability (NCI-H1975; first compound 0.04 µM): 0.74
relative viability (NCI-H1975; first compound 0.1265 µM): 0.602
relative viability (NCI-H1975; first compound 0.4 µM): 0.608
relative viability (NCI-H1975; first compound 4 µM): 0.448
relative viability (NCI-H23; first compound 0.04 µM): 0.732
relative viability (NCI-H23; first compound 0.1265 µM): 0.572
relative viability (NCI-H23; first compound 0.4 µM): 0.558
relative viability (NCI-H23; first compound 4 µM): 0.426
relative viability (NCI-H441; first compound 0.04 µM): 0.74
relative viability (NCI-H441; first compound 0.1265 µM): 0.791
relative viability (NCI-H441; first compound 0.4 µM): 0.398
relative viability (NCI-H441; first compound 4 µM): 0.438
relative viability (NCI-H520; first compound 0.04 µM): 0.272
relative viability (NCI-H520; first compound 0.1265 µM): 0.227
relative viability (NCI-H520; first compound 0.4 µM): 0.221
relative viability (NCI-H520; first compound 4 µM): 0.264
relative viability (NCI-H522; first compound 0.04 µM): 0.706
relative viability (NCI-H522; first compound 0.1265 µM): 0.679
relative viability (NCI-H522; first compound 0.4 µM): 0.742
relative viability (NCI-H522; first compound 4 µM): 0.735
relative viability (NCI-H596; first compound 0.04 µM): 0.899
relative viability (NCI-H596; first compound 0.1265 µM): 0.931
relative viability (NCI-H596; first compound 0.4 µM): 0.537
relative viability (NCI-H596; first compound 4 µM): 0.549
relative viability (NCI-H650; first compound 0.04 µM): 0.491
relative viability (NCI-H650; first compound 0.1265 µM): 0.443
relative viability (NCI-H650; first compound 0.4 µM): 0.51
relative viability (NCI-H650; first compound 4 µM): 0.36
relative viability (NCI-H838; first compound 0.04 µM): 0.401
relative viability (NCI-H838; first compound 0.1265 µM): 0.377
relative viability (NCI-H838; first compound 0.4 µM): 0.312
relative viability (NCI-H838; first compound 4 µM): 0.288
relative viability (SK-MES-1; first compound 0.04 µM): 0.664
relative viability (SK-MES-1; first compound 0.1265 µM): 0.566
relative viability (SK-MES-1; first compound 0.4 µM): 0.503
relative viability (SK-MES-1; first compound 4 µM): 0.49
relative viability (SW 900; first compound 0.04 µM): 0.455
relative viability (SW 900; first compound 0.1265 µM): 0.573
relative viability (SW 900; first compound 0.4 µM): 0.647
relative viability (SW 900; first compound 4 µM): 0.45
